Values joined by “and” are separate entries in the source; they are usually repeats but may differ in a detail not shown here. Identical values can stand only once. Like-named read-outs stand apart in the source and are kept apart here.
Assays:
[1] = tested on: SHIV-SF162P3; test: microbe, parasite or virus in culture; type: cell-based, SHIV (in rhesus macaque, Macaca mulatta, PBMCs)
Method: Freshly isolated PBMCs from three male rhesus macaque (M. mulatta) donors of Indian origin (HumanCells Biosciences) were cultured in RPMI-1640 cell culture medium (Life Technologies) supplemented with 10% heat-inactivated FBS (Hyclone), 2 mM glutamine and 100 U ml^−1 penicillin plus 100 μg ml^−1 streptomycin (complete RPMI). Before their use in the antiviral assays, rhesus PBMCs from three independent donors were pooled and activated at a density of 3 × 10^6 cells per ml for 72 h at 37 °C by the addition of 1 μg ml^–1 phytohemagglutinin (PHA, Sigma-Aldrich) and 50 U ml^−1 recombinant human interleukin-2 (IL-2) (Roche Diagnostics).
PHA/IL-2-stimulated rhesus PBMCs were infected in bulk culture with SHIV-SF162P3 at a concentration of 130 pg of p27 equivalent per million PBMCs. The cells were maintained in suspension by gently rocking the cultures mixed with virus inoculum for 3 h at 37 °C. The cells were then pelleted by centrifugation at 500g for 5 min, washed twice with complete RPMI to remove any unadsorbed virus and seeded into 96-well plates at a cell density of 2 × 10^5 cells per well in 100 μl. […] The cultures were incubated in a 5% CO2 incubator at 37 °C for 7 days. Cell-free supernatants derived from the PBMC cultures were harvested 7 days after infection, the amount of SHIV present was quantified using an SIV p27 antigen-capture ELISA assay (5436, Advanced Bioscience Laboratories) performed according to the manufacturer’s protocol, and the data were acquired using SoftMax Pro 6.3.1 software (Molecular Devices).

[2] = tested on: HIV-1 isolates; conditions: ref Link et al, Nature, 2020;[16]; read-out: EC50, human PBMCs, HIV-1 isolates; cited from earlier work
[3] = tested on: HIV capsid; conditions: ref Link et al, Nature, 2020;[16]; cited from earlier work
[4] = target: CA precursor (Gag polyprotein); conditions: ref Link et al, Nature, 2020;[16]; read-out: Binding Affinity (KD), CA precursor (Gag polyprotein); cited from earlier work
[5] = target: CA monomer; conditions: ref Link et al, Nature, 2020;[16]; read-out: Binding Affinity (KD), CA monomer; cited from earlier work
[6] = target: CA pentamer; conditions: ref Link et al, Nature, 2020;[16]; read-out: Binding Affinity (KD), CA pentamer; cited from earlier work
[7] = target: CA hexamer; conditions: ref Link et al, Nature, 2020;[16]; read-out: Binding Affinity (KD), CA hexamer; cited from earlier work
[8] = ref Link et al, Nature, 2020;[16], cited from earlier work
[9] = ref Link et al, Nature, 2020;[16]; cited from earlier work
[10] = ref Link et al, Nature, 2020;[16]; cited from earlier work; remark: listed apart in the source
[11] = tested on: HIV-1; conditions: cited from earlier work; for average LEN plasma concentration as multiple of human paEC95: 9 days after dose administration
[12] = tested on: CA mutant N74D; conditions: ref Link et al, Nature, 2020;[16]; cited from earlier work
[13] = tested on: CA mutant L56I; conditions: ref Link et al, Nature, 2020;[16]; cited from earlier work
[14] = tested on: CA mutant M66I; conditions: ref Link et al, Nature, 2020;[16]; cited from earlier work
[15] = in vivo, sc; cited from earlier work
[16] = single experiments n1–n7, SIV p27 ELISA day 7, read-out: SHIV162P3-rhPBMC-EC50, individual experiments

SMILES: O=C(NCc1c(F)cc(F)cc1F)c1cn2c(c(O)c1=O)C(=O)N1[C@H]3CC[C@H](C3)O[C@@H]1C2 [BIC, reference compound]
- EC50 ([1]; mean of 7 assays, SIV p27 ELISA day 7 post-infection, read-out: EC50, rhesus PBMCs, SHIV-SF162P3): 1.34 nM
- EC50 [1, 16]: 0.78 nM and 0.9 nM and 1.77 nM and 1.85 nM and 0.55 nM and 1.25 nM and 2.26 nM

SMILES: CC(C)(C#Cc1ccc(-c2ccc(Cl)c3c(NS(C)(=O)=O)nn(CC(F)(F)F)c23)c([C@H](Cc2cc(F)cc(F)c2)NC(=O)Cn2nc(C(F)(F)F)c3c2C(F)(F)[C@@H]2C[C@H]32)n1)S(C)(=O)=O [LEN, Lenacapavir, reference compound]
- EC50 ([1]; Simian immunodeficiency virus, PBMC, in Macaca mulatta, 168 h, read-out: EC50, rhesus PBMCs, SHIV-SF162P3, mean of 7 assays, SIV p27 ELISA day 7 post-infection): 0.39 nM
- EC50 ([1]; read-out: SHIV162P3-rhPBMC-EC50, individual experiments, single experiments n1–n7, SIV p27 ELISA day 7): 0.37 nM and 0.26 nM and 0.49 nM and 0.27 nM and 0.69 nM and 0.43 nM
- EC50 [1, 16]: 0.23 nM
- EC50 [2]: 0.05 nM
- Inhibits nuclear import (early-stage) [3]: Yes
- Inhibits proper capsid assembly (late-stage) [3]: Yes
- Inhibits virus production (late-stage) [3]: Yes
- Kd [4]: 1.1 nM
- Kd [5]: 2.5 nM
- Kd [6]: 0.22 nM
- Kd [7]: 0.24 nM
- Kinetic solubility at pH 2.0 ([8]; pH 2.0): <1, <1 μM
- Kinetic solubility at pH 7.4 ([8]; pH 7.4): <1, <1 μM
- T1/2, human cryopreserved hepatocytes [9]: 202 h
- Predicted Hepatic Clearance, rate, primary human hepatocytes [10]: 0.17 mL/min/kg
- average LEN plasma concentration as multiple of human paEC95 ([11]; 20 mg dose): 0.7 times the human paEC95
- average LEN plasma concentration as multiple of human paEC95 ([11]; 50 mg dose): 1.1 times the human paEC95
- participants with capsid mutation Q67H detected ([11]; long-acting LEN monotherapy, phase 1b): 2 of 29
- maximum decline in HIV-1 RNA ([11]; long-acting formulation, after 9 days of monotherapy): 2.3 log10
- In vitro fold-resistance (CA mutant/wild-type), N74D [12]: 22
- In vitro fold-resistance (CA mutant/wild-type), L56I [13]: 239
- In vitro fold-resistance (CA mutant/wild-type), M66I [14]: >3,200
- duration of mean exposure of more than six times human paEC95 [15]: at least 6 months

— article PMC8753592, “Long-acting capsid inhibitor protects macaques from repeat SHIV challenges” (Nature, 2021)
